Nine compounds from PubChem BioAssay (NCI) can be followed below.

Some test systems named below: NCI-H460 lung; HCT-116 colon; SW-620 colon; 786-0 renal; SN12C renal; ACHN renal; LOX IMVI melanoma; TK-10 renal.
Assay in all cases: NCI-60 cell line screen, 48 h

Each structure is given as a SMILES string.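 The compound was tested at five concentrations on cells cultured in 96-well plates, with a 48-hour exposure period. The concentration for 50% growth inhibition is given as GI50. TGI: total growth inhibition.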

`Cc1ccc(NC(=O)c2cccc(C(C)(C)C#N)c2)cc1Nc1ccc2ncn(C)c(=O)c2c1`: the GI50 in the assay on NCI-H460 lung is 2.76 µM; with HCT-116 colon, 0.1 µM; in the assay on SW-620 colon, 1.01 µM; in the assay with 786-0 renal, 11.6 µM; in the assay on SN12C renal, 4.94 µM; in the assay on ACHN renal, 1.73 µM. The GI50 in the assay on LOX IMVI melanoma was 0.0585 µM; in the assay with TK-10 renal, 2.9 µM. For the same compound, the TGI with NCI-H460 lung, in the assay with HCT-116 colon, in the assay with SW-620 colon, in the assay on 786-0 renal, in the assay on SN12C renal and with ACHN renal was over 100 µM in each case. Also, the figures for the TGI with LOX IMVI melanoma and in the assay with TK-10 renal were over 67.5 µM and over 100 µM, respectively.
For the compound `Cc1cc(C(=O)Nc2ccc3cc(CN4CCOCC4)ccc3n2)c(C)n1-c1ccccc1`, the GI50 with NCI-H460 lung is 2.51 µM; with HCT-116 colon, 1.68 µM; in the assay with SW-620 colon, 4.18 µM; in the assay on 786-0 renal it was 4.75 µM; in the assay with SN12C renal, 5.75 µM; with ACHN renal, 2.6 µM. Besides, the values for the GI50 with LOX IMVI melanoma and in the assay with TK-10 renal were 1.99 µM and 4.75 µM, respectively. Moreover, the TGI in the assay on NCI-H460 lung was over 52.1 µM; in the assay on HCT-116 colon, 17.2 µM; in the assay on SW-620 colon, 30.5 µM; with 786-0 renal it was 17.9 µM; with SN12C renal it was over 92.3 µM; in the assay with ACHN renal it was 42.3 µM. Further, the values for the TGI in the assay with LOX IMVI melanoma and in the assay with TK-10 renal were 15.2 µM and 58.5 µM, respectively.
Regarding `CC1(C)C(=O)/C(=C\c2cccnc2)C[C@]2(C)[C@H]3CC[C@@H]4[C@H]5[C@H](C(=O)/C=C/c6cccnc6)CC[C@]5(C(=O)O)CC[C@@]4(C)[C@]3(C)CC[C@@H]12`, the GI50 with NCI-H460 lung is 2.12 µM; in the assay on HCT-116 colon, 1.61 µM; in the assay with SW-620 colon, 2.79 µM; in the assay on 786-0 renal, 2.36 µM; in the assay on SN12C renal, 2.79 µM; with ACHN renal, 1.69 µM. Moreover, the GI50 in the assay with LOX IMVI melanoma was 1.74 µM; in the assay on TK-10 renal, 3.57 µM. The TGI in the assay with NCI-H460 lung was found to be 6.69 µM; in the assay with HCT-116 colon it was 3.56 µM; with SW-620 colon, 10.3 µM; in the assay with 786-0 renal, 5.41 µM; with SN12C renal it was 9.76 µM; in the assay with ACHN renal, 3.06 µM. The figures for the TGI in the assay with LOX IMVI melanoma and with TK-10 renal were 3.6 µM and 10.9 µM, respectively.
For the compound `COc1c(C(=O)/C=C/c2ccccc2)c(O)cc2occc12`, the GI50 is 3.02 µM in the assay with NCI-H460 lung; 3.72 µM in the assay with HCT-116 colon; 3.52 µM with SW-620 colon; 16.2 µM in the assay with 786-0 renal; 4.48 µM in the assay with SN12C renal; 4.51 µM in the assay on ACHN renal. The GI50 with LOX IMVI melanoma was 1.69 µM; in the assay with TK-10 renal, 11.2 µM. The TGI with NCI-H460 lung was determined as 8.92 µM; in the assay on HCT-116 colon it was 12.5 µM; in the assay with SW-620 colon, 11.7 µM; in the assay on 786-0 renal it was 31.8 µM; in the assay on SN12C renal, 15.8 µM; in the assay with ACHN renal it was 19.9 µM. The TGI in the assay with LOX IMVI melanoma turned out to be 3.31 µM; in the assay on TK-10 renal it was 24.8 µM.
As to `CC(C)c1ccc(-c2cc(-c3cn[nH]c3-c3ccccn3)ccn2)cc1`, the GI50 is 7.64 µM with NCI-H460 lung; 10.3 µM in the assay on HCT-116 colon; 18 µM with SW-620 colon; over 18.8 µM in the assay with 786-0 renal; 15.9 µM with SN12C renal; 18.5 µM in the assay on ACHN renal. In addition, the GI50 in the assay with LOX IMVI melanoma was 14.6 µM; in the assay with TK-10 renal, over 18.6 µM. The TGI in the assay on NCI-H460 lung, with HCT-116 colon, in the assay with SW-620 colon, with 786-0 renal, in the assay on SN12C renal and with ACHN renal was over 25 µM throughout. Moreover, the TGI in the assay on LOX IMVI melanoma and with TK-10 renal was over 25 µM throughout.
`CN1CCN(CCCNc2nc3ccc(Oc4ccc(NC(=O)Nc5cc(C(F)(F)F)ccc5F)cc4)cc3[nH]2)CC1`: the GI50 with NCI-H460 lung was 4.37 µM; in the assay on HCT-116 colon, 4.28 µM; in the assay with SW-620 colon it was 4.35 µM; in the assay on 786-0 renal, 5.26 µM; in the assay with SN12C renal it was 4.77 µM; in the assay on ACHN renal, 17.5 µM. In addition, the GI50 in the assay on LOX IMVI melanoma is 4.25 µM; with TK-10 renal, 3.93 µM. Moreover, the TGI in the assay with NCI-H460 lung is 8.4 µM; with HCT-116 colon, 7.99 µM; in the assay with SW-620 colon, 7.79 µM; with 786-0 renal, 11.9 µM; in the assay on SN12C renal, 11.2 µM; with ACHN renal it was over 25 µM. Also, the TGI came to 7.91 µM with LOX IMVI melanoma and 9.07 µM in the assay on TK-10 renal.
With `COc1cc(OC)c(C(=O)/C=C/c2cccc(C(F)(F)F)c2)c(OC)c1`, the GI50 is 1.08 µM in the assay on NCI-H460 lung; 0.806 µM in the assay with HCT-116 colon; 1.58 µM in the assay with SW-620 colon; 1.66 µM in the assay with 786-0 renal; 1.52 µM in the assay with SN12C renal; 1.46 µM in the assay with ACHN renal. The figures for the GI50 in the assay with LOX IMVI melanoma and in the assay on TK-10 renal were 1.04 µM and 1.85 µM, respectively. Also, the TGI in the assay with NCI-H460 lung was 2.67 µM; in the assay on HCT-116 colon it was 1.59 µM; with SW-620 colon it was 5.01 µM; with 786-0 renal, 5.59 µM; in the assay on SN12C renal it was 5.68 µM; in the assay with ACHN renal it was 5.17 µM. In addition, the TGI in the assay on LOX IMVI melanoma stood at 2.42 µM; in the assay with TK-10 renal, 6.01 µM.
With `CC(C)c1c(O)c(O)c2c(c1O)C(=O)C(O)=C1C(C)(C)CCC[C@@]12C`, the TGI in the assay with NCI-H460 lung is 10.1 µM; with HCT-116 colon, 11.2 µM; in the assay on SW-620 colon, 11.8 µM; with 786-0 renal, 13.8 µM; in the assay with SN12C renal, 18.7 µM; with ACHN renal, 11.3 µM. The results for the TGI with LOX IMVI melanoma and in the assay with TK-10 renal were 13.8 µM and 15.1 µM, respectively.
As for `Nc1ccccc1C#C/C=C\C#Cc1ccccc1N`, the GI50 in the assay on NCI-H460 lung is 6.51 µM; with HCT-116 colon it was 4.15 µM; in the assay on SW-620 colon, 2.91 µM; in the assay on 786-0 renal, 13.7 µM; in the assay on SN12C renal, 21.8 µM; in the assay with ACHN renal, 19.9 µM. In addition, the GI50 is 17.9 µM with LOX IMVI melanoma and 8.33 µM in the assay with TK-10 renal. The TGI with NCI-H460 lung stood at 80.4 µM; with HCT-116 colon, 19.1 µM; in the assay with SW-620 colon, 18.4 µM; in the assay on 786-0 renal, 42.9 µM; with SN12C renal it was 54.4 µM; in the assay on ACHN renal, 50.9 µM. The results for the TGI in the assay on LOX IMVI melanoma and with TK-10 renal were 33.7 µM and 36.1 µM, respectively.
